In brackets after ≈: the same amount, converted by molar mass. Like-named read-outs stand apart in the source and are kept apart here.
How the values were obtained:
[1] = Liver microsomal stability, human; assay type: in vitro ADME; conditions: human; matrix not given; read-out: Clintr,unbound human (converted)
Procedure: (§1) The microsomal stability assay was performed by incubation of test compound at 1 μM, 0.2% DMSO in phosphate buffer with microsomes (0.5 mg/mL) from mouse, rat, dog, or human (Xeno-Tech, Kansas City, KS, USA), and cofactors with final concentrations of 0.6 U/mL glucose-6- phosphate dehydrogenase, 3.3 mM MgCl2, 3.3 mM glucose-6-phosphate, and 1.3 mM nicotinamide adenine dinucleotide phosphate (NADP)+. Before addition of the microsomes (time zero) and after 30 min of incubation at 37 °C with shaking, the reaction was stopped, and proteins were precipitated with an excess of acetonitrile containing an internal standard. The samples were mixed, centrifuged, and filtered, and the supernatant was analyzed by liquid chromatography–mass spectrometry/mass spectrometry (LC–MS/MS). The instrument responses (peak areas/IS peak areas) were referenced to the zero-time point samples (considered as 100%) to determine the percentage of compound remaining. In vitro unbound intrinsic clearance (CLint,u) was calculated from the half-life using the following equations: [drawing 1] [drawing 2] To take into account nonspecific binding, scaled CLint values were corrected with the fraction unbound in microsomes (fu, mic). [drawing 3]
Equilibrium dialysis is a technique used to measure microsomal binding. Briefly, the assay was performed in a 96-well Teflon dialysis unit (Dialysis Device), where each well consists of two chambers separated by a dialysis membrane (membrane strips, MW cutoff 12–14 kDa, HTDialysis). Inactivated liver microsomes (pooled human liver microsomes, Xenotech, protein concentration of 0.5 mg/mL) spiked with a compound (1 μM final concentration, 0.5% DMSO) were added to one chamber and buffer solution (50 mM PBS Buffer) was added to the other side of the well. Each compound was analyzed in duplicate for 4 h at 37 °C. At the end of incubation, both chambers were sampled and analyzed by LC-MS/MS. The unbound microsomal fraction (fu, mic) was calculated as the concentration in buffer divided by the total concentration in the microsomal side. Positive controls included in this assay are terfenadine and verapamil.

[2] = Liver microsomal stability, dog; assay type: in vitro ADME; conditions: matrix not given, read-out: Clintr,unbound dog
Procedure: as §1, with “The instrument responses (peak areas/IS peak areas) were referenced to the zero-time point samples (considered as 100%) to determine the percentage of compound remaining.” left out, “[drawing 2] To take into account nonspecific binding, scaled CLint values were corrected with the fraction unbound in microsomes (fu, mic). [drawing 3]” left out
Equilibrium dialysis is a technique used to measure microsomal binding. […] Each compound was analyzed in duplicate for 4 h at 37 °C. At the end of incubation, both chambers were sampled and analyzed by LC-MS/MS. The unbound microsomal fraction (fu, mic) was calculated as the concentration in buffer divided by the total concentration in the microsomal side. […]

[3] = target: T1, CYP1A2 (Homo sapiens, UniProt P05177); test: CYP reversible inhibition in HLM, CYP1A2; assay type: in vitro ADME; conditions: probe phenacetin
T1 construct: tissue BD Gentest; host or cells: human liver microsomes
T1 sequence (P05177 1-516): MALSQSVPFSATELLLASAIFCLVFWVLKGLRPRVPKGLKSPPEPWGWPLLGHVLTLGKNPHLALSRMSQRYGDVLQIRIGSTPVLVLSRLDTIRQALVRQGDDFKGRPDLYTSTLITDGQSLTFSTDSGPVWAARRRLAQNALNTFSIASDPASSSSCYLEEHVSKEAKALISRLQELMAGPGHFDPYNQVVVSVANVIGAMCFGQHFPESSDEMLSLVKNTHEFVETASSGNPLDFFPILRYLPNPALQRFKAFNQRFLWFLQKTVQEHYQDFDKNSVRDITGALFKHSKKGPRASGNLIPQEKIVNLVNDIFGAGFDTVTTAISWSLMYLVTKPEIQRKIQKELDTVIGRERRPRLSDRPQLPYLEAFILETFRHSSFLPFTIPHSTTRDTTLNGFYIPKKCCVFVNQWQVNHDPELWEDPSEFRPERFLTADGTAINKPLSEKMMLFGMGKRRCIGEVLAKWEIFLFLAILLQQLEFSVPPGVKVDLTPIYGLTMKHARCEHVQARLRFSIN
Procedure: (§2) Test compounds were diluted in methanol and then added to mixture containing 50 mM potassium phosphate buffer, pH 7.4, human liver microsomes (BD Gentest) and probe substrate. After prewarming for 5 min at 37 °C, the reaction was started by adding cofactor mix (7.65 mg/mL glucose-6-phosphate, 1.7 mg/mL NADP, 6 U/mL of glucose-6-phosphate dehydrogenase), resulting in seven final concentrations of test compounds in the range 0.14–100 μM (2% methanol). Isoform specific conditions regarding probe substrate and microsomal protein concentrations are available in Table 2. Final concentrations of cofactor mix components were as follows: 1.56 mg/mL glucose-6-phosphate, 0.34 mg/mL NADP, and 1.2 U/mL glucose-6-phosphate dehydrogenase. After incubation at 37 °C, the reaction was terminated with acetonitrile:methanol (2:1) solution with internal standard. Samples were centrifuged, and the supernatant fractions were analyzed by LC-MS/MS. The instrument responses (test compounds and internal standard peak areas) were referenced to those for solvent controls (assumed as 100%) in order to determine the percentage reduction in probe metabolism. Percent of control activity vs concentration plots were generated and fitted using GraphPad Prism software to generate IC50.

[4] = target: T2, CYP2C19 (Homo sapiens, UniProt P33261); test: CYP reversible inhibition in HLM, CYP2C19; assay type: in vitro ADME; conditions: probe S-mephenytoin
T2 construct: tissue BD Gentest; host or cells: human liver microsomes
Procedure: as §2

[5] = target: T3, CYP2C9 (Homo sapiens, UniProt P11712); test: CYP reversible inhibition in HLM, CYP2C9; assay type: in vitro ADME; conditions: probe diclofenac; read-out: CYP inhibition in HLM IC50, CYP2C9
T3 construct: tissue BD Gentest; host or cells: human liver microsomes
Procedure: as §2

[6] = target: T4, CYP2D6 (Homo sapiens, UniProt P10635); test: CYP reversible inhibition in HLM, CYP2D6; assay type: in vitro ADME; conditions: probe dextromethorphan
T4 construct: tissue BD Gentest; host or cells: human liver microsomes
Procedure: as §2

[7] = Thermodynamic solubility; assay type: physicochemical
Procedure: Dry matter of compound was dissolved at 1 mg/mL in buffers at different pH (Fasted simulated gastric fluid and pH 7.4) in glass vials. After 24 h of stirring at room temperature, a sample is taken, centrifuged for 10 min at 10,000 rpm, and filtered. The samples were diluted in duplicate in DMSO (F100 and F10). Then, a final dilution (F100) in 80/20 water/acetonitrile containing the internal standard was used for the LCMS-MS analysis.
A standard curve was made ranging from a 200,000–75 ng/mL stock in DMSO, freshly prepared from dry matter. The standard curve and quality controls were diluted in an F100 in 80/20 water/acetonitrile (with internal standard) and analyzed on LC/MS-MS. The peak areas of the standard curve are plotted in a graph, and a linear or polynomial of the second order equation is used to calculate the unknown concentrations of the test compound.

[8] = Measured pKa (potentiometric and UV methods); assay type: physicochemical; conditions: measured at Charles River
[9] = target: T5, (h)H1 (Homo sapiens, UniProt P35367); test: Radioligand binding, (h)H1 (Eurofins panel); conditions: read-out: IC50, inhibition of radioligand binding to (h)H1
T5 construct: purchased Eurofins

[10] = Ames II test
[11] = In vitro micronucleus test; assay type: cell-based

T5 sequence (P35367 whole entry): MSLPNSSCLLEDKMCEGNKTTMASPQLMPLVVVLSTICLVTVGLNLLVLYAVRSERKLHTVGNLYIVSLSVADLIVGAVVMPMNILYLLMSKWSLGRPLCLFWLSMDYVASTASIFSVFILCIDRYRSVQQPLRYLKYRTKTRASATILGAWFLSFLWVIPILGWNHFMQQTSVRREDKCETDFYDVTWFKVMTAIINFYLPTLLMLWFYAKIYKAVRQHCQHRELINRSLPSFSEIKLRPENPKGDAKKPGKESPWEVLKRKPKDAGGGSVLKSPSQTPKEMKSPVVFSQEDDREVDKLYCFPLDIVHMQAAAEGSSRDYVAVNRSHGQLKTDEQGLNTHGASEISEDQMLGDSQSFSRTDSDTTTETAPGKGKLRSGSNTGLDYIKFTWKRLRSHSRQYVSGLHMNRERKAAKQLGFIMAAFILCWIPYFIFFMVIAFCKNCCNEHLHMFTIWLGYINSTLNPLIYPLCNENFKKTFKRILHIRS
T4 sequence (P10635 whole entry): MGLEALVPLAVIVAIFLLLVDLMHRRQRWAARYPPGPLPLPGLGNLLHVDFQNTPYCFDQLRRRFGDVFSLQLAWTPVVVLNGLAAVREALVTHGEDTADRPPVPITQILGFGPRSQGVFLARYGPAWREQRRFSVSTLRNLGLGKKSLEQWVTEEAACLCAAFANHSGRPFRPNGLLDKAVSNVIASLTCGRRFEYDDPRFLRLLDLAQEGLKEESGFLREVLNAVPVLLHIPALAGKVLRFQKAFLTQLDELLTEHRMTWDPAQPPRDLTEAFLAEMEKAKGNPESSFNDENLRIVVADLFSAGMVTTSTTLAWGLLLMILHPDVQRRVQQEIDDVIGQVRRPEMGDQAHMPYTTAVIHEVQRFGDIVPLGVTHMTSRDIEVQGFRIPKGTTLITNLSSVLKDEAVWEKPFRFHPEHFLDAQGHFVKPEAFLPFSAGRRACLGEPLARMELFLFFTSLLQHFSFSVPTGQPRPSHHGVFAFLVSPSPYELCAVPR
T2 sequence (P33261 whole entry): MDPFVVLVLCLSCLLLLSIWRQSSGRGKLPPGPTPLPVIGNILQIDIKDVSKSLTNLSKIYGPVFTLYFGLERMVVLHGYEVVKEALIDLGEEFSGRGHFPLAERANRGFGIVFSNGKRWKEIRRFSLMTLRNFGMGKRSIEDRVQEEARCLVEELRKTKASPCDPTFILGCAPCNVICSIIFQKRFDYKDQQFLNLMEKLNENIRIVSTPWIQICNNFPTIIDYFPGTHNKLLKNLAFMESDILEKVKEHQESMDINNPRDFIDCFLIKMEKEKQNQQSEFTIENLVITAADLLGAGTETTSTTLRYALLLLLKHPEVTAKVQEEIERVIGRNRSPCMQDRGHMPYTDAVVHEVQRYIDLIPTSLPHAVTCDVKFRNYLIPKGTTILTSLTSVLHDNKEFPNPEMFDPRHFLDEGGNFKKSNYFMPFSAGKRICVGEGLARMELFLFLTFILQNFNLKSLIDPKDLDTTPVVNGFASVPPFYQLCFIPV
T3 sequence (P11712 whole entry): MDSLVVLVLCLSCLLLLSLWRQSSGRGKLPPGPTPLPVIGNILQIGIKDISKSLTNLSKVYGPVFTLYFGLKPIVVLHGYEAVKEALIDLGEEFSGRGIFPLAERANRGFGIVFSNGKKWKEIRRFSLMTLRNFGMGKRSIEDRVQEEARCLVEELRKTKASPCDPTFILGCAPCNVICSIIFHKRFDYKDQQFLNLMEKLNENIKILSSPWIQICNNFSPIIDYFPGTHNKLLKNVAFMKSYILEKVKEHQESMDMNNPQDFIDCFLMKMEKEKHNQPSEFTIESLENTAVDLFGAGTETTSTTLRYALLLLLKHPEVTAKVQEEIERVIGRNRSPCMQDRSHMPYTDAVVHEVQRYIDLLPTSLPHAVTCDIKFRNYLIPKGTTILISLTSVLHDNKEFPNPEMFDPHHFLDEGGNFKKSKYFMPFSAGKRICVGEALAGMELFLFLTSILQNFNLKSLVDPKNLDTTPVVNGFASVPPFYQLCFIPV

With `COC1CCN(C2CCN(c3cc(C(=O)NS(=O)(=O)N(C)C)nc4c3c(C3CCC3)nn4-c3ccc(F)cc3)CC2)CC1` [Compound 52, 3-Cyclobutyl-N-(N,N-dimethylsulfamoyl)-1-(4-fluorophenyl)-4-(4-methoxy-[1,4′-bipiperidin]-1′-yl)-1H-pyrazolo[3,4-b]pyridine-6-carboxamide] as the compound, how does the CLint scaled at 1 μM [1] read?
Its CLint scaled at 1 μM is 66.7 mL/min/kg.

What about the CLint scaled at 1 μM [2] of the same compound?
Its CLint scaled at 1 μM is under 32 mL/min/kg.

And the IC50 [3]?
The IC50 was over 100 µM.

And the IC50 [4]?
The IC50 was over 33 µM.

And the IC50 [5]?
The IC50 was 1.4 µM.

And the IC50 [6]?
The IC50 was over 100 µM.

What about the solubility thermodynamic at 24 h ([7]; buffer pH 7.4, pH 7.4, read-out: thermodynamic solubility pH 7.4) of the same compound?
The solubility thermodynamic at 24 h was 9.9 µg/mL (≈ 16.1 µM).

And the solubility thermodynamic at 24 h ([7]; fasted simulated gastric fluid, read-out: thermodynamic solubility FASSGF)?
Its solubility thermodynamic at 24 h is 10.9 µg/mL (≈ 17.8 µM).

What about the pKa ([8]; UV method, read-out: measured acylsulfonamyl pKa) of the same compound?
Its pKa is 4.74.

What about the pKa ([8]; UV method, read-out: measured piperidine pKa) of the same compound?
The pKa was 8.51.

What about the pKa ([8]; potentiometric method, read-out: measured acylsulfonamyl pKa) of the same compound?
Its pKa is 4.96.

What about the pKa ([8]; potentiometric method, read-out: measured piperidine pKa) of the same compound?
The pKa was 8.42.

And the IC50 [9]?
Its IC50 is 8 µM.

And the mutagenicity [10]?
The mutagenicity was “not mutagenic”.

What about the clastogenicity / aneugenicity [11] of the same compound?
Its clastogenicity / aneugenicity is “not mutagenic, clastogenic, or aneugenic”.

— PMC11017246, “Discovery of GLPG2737, a Potent Type 2 Corrector of CFTR for the Treatment of Cystic Fibrosis in Combination with a Potentiator and a Type 1 Co-corrector” (Journal of Medicinal Chemistry, 2024)
